Assay results: ChEMBL document CHEMBL4819051, “Synthesis and antifungal activity of new hybrids thiazolo[4,5-d]pyrimidines with (1H-1,2,4)triazole” (Bioorg Med Chem Lett, 2021)
≈ marks a conversion by molar mass, not a printed value.

How the values were obtained:
[1] = 1-octanol/aqueous buffer distribution coefficient, logP of the compound at pH 7.4; type: physicochemical
Candida parapsilosis [2] = assay: Antifungal activity against Candida parapsilosis ATCC 22019 assessed as reduction in fungal growth incubated for 24 hrs by CLSI based serial microbroth dilution method; type: functional; settings: Lodderomyces parapsilosis
Candida parapsilosis [3] = assay: Antifungal activity against Candida parapsilosis ATCC 22019 assessed as reduction in fungal growth incubated for 48 hrs by CLSI based serial microbroth dilution method; type: functional; settings: Lodderomyces parapsilosis
Candida albicans [4] = assay: Antifungal activity against Candida albicans ATCC 24433 assessed as reduction in fungal growth incubated for 24 hrs by CLSI based serial microbroth dilution method; type: functional
Candida albicans [5] = assay: Antifungal activity against Candida albicans ATCC 24433 assessed as reduction in fungal growth incubated for 48 hrs by CLSI based serial microbroth dilution method; type: functional
Candida albicans [6] = assay: Antifungal activity against Candida albicans 8R assessed as reduction in fungal growth incubated for 24 hrs by CLSI based serial microbroth dilution method; type: functional
Candida albicans [7] = assay: Antifungal activity against Candida albicans 8R assessed as reduction in fungal growth incubated for 48 hrs by CLSI based serial microbroth dilution method; type: functional
Candida albicans [8] = assay: Antifungal activity against Candida albicans CBS 8837 assessed as reduction in fungal growth incubated for 24 hrs by CLSI based serial microbroth dilution method; type: functional
Candida albicans [9] = assay: Antifungal activity against Candida albicans CBS 8837 assessed as reduction in fungal growth incubated for 48 hrs by CLSI based serial microbroth dilution method; type: functional
Candida albicans [10] = assay: Antifungal activity against Candida albicans 604M assessed as reduction in fungal growth incubated for 24 hrs by CLSI based serial microbroth dilution method; type: functional
Candida albicans [11] = assay: Antifungal activity against Candida albicans 604M assessed as reduction in fungal growth incubated for 48 hrs by CLSI based serial microbroth dilution method; type: functional
Candida tropicalis [12] = assay: Antifungal activity against Candida tropicalis 3019 assessed as reduction in fungal growth incubated for 24 hrs by CLSI based serial microbroth dilution method; type: functional
Candida tropicalis [13] = assay: Antifungal activity against Candida tropicalis 3019 assessed as reduction in fungal growth incubated for 48 hrs by CLSI based serial microbroth dilution method; type: functional
Pichia kudriavzevii [14] = assay: Antifungal activity against Candida krusei 432M assessed as reduction in fungal growth incubated for 24 hrs by CLSI based serial microbroth dilution method; type: functional
Pichia kudriavzevii [15] = assay: Antifungal activity against Candida krusei 432M assessed as reduction in fungal growth incubated for 48 hrs by CLSI based serial microbroth dilution method; type: functional
Cryptococcus neoformans [16] = assay: Antifungal activity against Cryptococcus neoformans assessed as reduction in fungal growth incubated for 24 hrs by CLSI based serial microbroth dilution method; type: functional
Cryptococcus neoformans [17] = assay: Antifungal activity against Cryptococcus neoformans assessed as reduction in fungal growth incubated for 48 hrs by CLSI based serial microbroth dilution method; type: functional
Aspergillus niger [18] = assay: Antifungal activity against Aspergillus niger 37a assessed as reduction in fungal growth incubated for 24 hrs by CLSI based serial microbroth dilution method; type: functional
Aspergillus niger [19] = assay: Antifungal activity against Aspergillus niger 37a assessed as reduction in fungal growth incubated for 48 hrs by CLSI based serial microbroth dilution method; type: functional
Microsporum canis [20] = assay: Antifungal activity against Microsporum canis B-200 assessed as reduction in fungal growth incubated for 24 hrs by CLSI based serial microbroth dilution method; type: functional
Microsporum canis [21] = assay: Antifungal activity against Microsporum canis B-200 assessed as reduction in fungal growth incubated for 48 hrs by CLSI based serial microbroth dilution method; type: functional
Cyberlindnera jadinii [22] = assay: Antifungal activity against Candida utilis 84 assessed as reduction in fungal growth incubated for 24 hrs by CLSI based serial microbroth dilution method; type: functional; settings: Williopsis jadinii
Cyberlindnera jadinii [23] = assay: Antifungal activity against Candida utilis 84 assessed as reduction in fungal growth incubated for 48 hrs by CLSI based serial microbroth dilution method; type: functional; settings: Williopsis jadinii
Trichophyton rubrum [24] = assay: Antifungal activity against Trichophyton rubrum 2002 assessed as reduction in fungal growth incubated for 24 hrs by CLSI based serial microbroth dilution method; type: functional
Trichophyton rubrum [25] = assay: Antifungal activity against Trichophyton rubrum 2002 assessed as reduction in fungal growth incubated for 48 hrs by CLSI based serial microbroth dilution method; type: functional
Nakaseomyces glabratus [26] = assay: Antifungal activity against Candida glabrata 61L assessed as reduction in fungal growth incubated for 24 hrs by CLSI based serial microbroth dilution method; type: functional
Nakaseomyces glabratus [27] = assay: Antifungal activity against Candida glabrata 61L assessed as reduction in fungal growth incubated for 48 hrs by CLSI based serial microbroth dilution method; type: functional

## O=c1c2sc(=S)n(-c3ccc(F)cc3)c2ncn1CC(O)(Cn1cncn1)c1ccc(F)cc1F (stereo not drawn)
[1]
  logD: 0.47

## Cc1ccc(-n2c(=S)sc3c(=O)n(CC(=O)NCC(O)(Cn4cncn4)c4ccc(F)cc4F)cnc32)cc1 (stereo not drawn)
[1]
  logD: 1.27

## COc1ccccc1-n1c(=S)sc2c(=O)n(CC(O)CN3CCN(CC(O)(Cn4cncn4)c4ccc(F)cc4F)CC3)cnc21 (stereo not drawn)
[1]
  logD: 2.91

## Cc1ccc(-n2c(=S)sc3c(=O)n(CCCN4CCN(CC(O)(Cn5cncn5)c5ccc(F)cc5F)CC4)cnc32)cc1 (stereo not drawn)
[1]
  logD: 4.1
Candida parapsilosis [2]
  MIC: 0.5 µg/mL (≈ 0.783 µM)
Candida parapsilosis [3]
  MIC: 0.5 µg/mL (≈ 0.783 µM)
Candida albicans [4]
  MIC: 16 µg/mL (≈ 25 µM)
Candida albicans [5]
  MIC: 32 µg/mL (≈ 50.1 µM)
Candida albicans [6]
  MIC: 16 µg/mL (≈ 25 µM)
Candida albicans [7]
  MIC: 32 µg/mL (≈ 50.1 µM)
Candida albicans [8]
  MIC: 16 µg/mL (≈ 25 µM)
Candida albicans [9]
  MIC: 32 µg/mL (≈ 50.1 µM)
Candida albicans [10]
  MIC: 32 µg/mL (≈ 50.1 µM)
Candida albicans [11]
  MIC: 32 µg/mL (≈ 50.1 µM)
Candida tropicalis [12]
  MIC: 8 µg/mL (≈ 12.5 µM)
Candida tropicalis [13]
  MIC: 16 µg/mL (≈ 25 µM)
Pichia kudriavzevii [14]
  MIC: 16 µg/mL (≈ 25 µM)
Pichia kudriavzevii [15]
  MIC: 32 µg/mL (≈ 50.1 µM)
Cryptococcus neoformans [16]
  MIC: 64 µg/mL (≈ 100 µM)
Cryptococcus neoformans [17]
  MIC: 64 µg/mL (≈ 100 µM)
Aspergillus niger [18]
  MIC: 32 µg/mL (≈ 50.1 µM)
Aspergillus niger [19]
  MIC: 32 µg/mL (≈ 50.1 µM)
Microsporum canis [20]
  MIC: 32 µg/mL (≈ 50.1 µM)
Microsporum canis [21]
  MIC: 32 µg/mL (≈ 50.1 µM)
Cyberlindnera jadinii [22]
  MIC: 4 µg/mL (≈ 6.26 µM)
Cyberlindnera jadinii [23]
  MIC: 4 µg/mL (≈ 6.26 µM)
Trichophyton rubrum [24]
  MIC: 32 µg/mL (≈ 50.1 µM)
Trichophyton rubrum [25]
  MIC: 32 µg/mL (≈ 50.1 µM)
Nakaseomyces glabratus [26]
  MIC: 2 µg/mL (≈ 3.13 µM)
Nakaseomyces glabratus [27]
  MIC: 32 µg/mL (≈ 50.1 µM)

## O=C(Cn1cnc2c(sc(=S)n2-c2ccc(F)cc2)c1=O)NCC(O)(Cn1cncn1)c1ccc(F)cc1F (stereo not drawn)
[1]
  logD: 0.79

## Cc1ccc(-n2c(=S)sc3c(=O)n(CC(O)(Cn4cncn4)c4ccc(F)cc4F)cnc32)cc1 (stereo not drawn)
[1]
  logD: 0.79

## OC(Cn1cncn1)(Cn1cncn1)c1ccc(F)cc1F [FLUCONAZOLE]
Candida parapsilosis [2]
  MIC: 2 µg/mL (≈ 6.53 µM)
Candida parapsilosis [3]
  MIC: 4 µg/mL (≈ 13.1 µM)
Candida albicans [4]
  MIC: 4 µg/mL (≈ 13.1 µM)
Candida albicans [5]
  MIC: 4 µg/mL (≈ 13.1 µM)
Candida albicans [6]
  MIC: 128 µg/mL (≈ 418 µM)
Candida albicans [7]
  MIC: 128 µg/mL (≈ 418 µM)
Candida albicans [8]
  MIC: 128 µg/mL (≈ 418 µM)
Candida albicans [9]
  MIC: 128 µg/mL (≈ 418 µM)
Candida albicans [10]
  MIC: 64 µg/mL (≈ 209 µM)
Candida albicans [11]
  MIC: 64 µg/mL (≈ 209 µM)
Candida tropicalis [12]
  MIC: 1 µg/mL (≈ 3.27 µM)
Candida tropicalis [13]
  MIC: 2 µg/mL (≈ 6.53 µM)
Pichia kudriavzevii [14]
  MIC: 32 µg/mL (≈ 104 µM)
Pichia kudriavzevii [15]
  MIC: 64 µg/mL (≈ 209 µM)
Cryptococcus neoformans [16]
  MIC: 16 µg/mL (≈ 52.2 µM)
Cryptococcus neoformans [17]
  MIC: 16 µg/mL (≈ 52.2 µM)
Aspergillus niger [18]
  MIC: 64 µg/mL (≈ 209 µM)
Aspergillus niger [19]
  MIC: 64 µg/mL (≈ 209 µM)
Microsporum canis [20]
  MIC: 32 µg/mL (≈ 104 µM)
Microsporum canis [21]
  MIC: 32 µg/mL (≈ 104 µM)
Cyberlindnera jadinii [22]
  MIC: 2 µg/mL (≈ 6.53 µM)
Cyberlindnera jadinii [23]
  MIC: 2 µg/mL (≈ 6.53 µM)
Trichophyton rubrum [24]
  MIC: 64 µg/mL (≈ 209 µM)
Trichophyton rubrum [25]
  MIC: 128 µg/mL (≈ 418 µM)
Nakaseomyces glabratus [26]
  MIC: 8 µg/mL (≈ 26.1 µM)
Nakaseomyces glabratus [27]
  MIC: 32 µg/mL (≈ 104 µM)
